# Source: publication PMC9775191, “A Subset Screen of the Compounds Australia Scaffold Library Identifies 7-Acylaminodibenzoxazepinones as Potent and Selective Hits for Anti-Giardia Drug Discovery” (Biomedicines, 2022)
# System: G. duodenalis BRIS/91/HEPU/1279
# Test: Primary Giardia screen at 10 µM (live-cell imaging, automated counting)
# Type: cell-based, Giardia duodenalis
# Details: 24 h
# In short: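 Percent growth versus 0.2% DMSO vehicle, background-corrected with media-only wells, is reported at 24 and 48 h from automated live-cell counts. Testing used 10 μM final in a 3% O2 atmosphere, with plate quality checked by Z' factor.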
row,SMILES,Average % Inhibition 24h
1,O=C(NC1CCCCCC1)c1cc2cn(C3CC3)cc2s1 [SN00802023],1.8%
2,Cc1sc(C(=O)N2CCCC2)c2ncnc(NCc3cccc(Cl)c3)c12 [SN00803183],15.6%

# Same assay, conditions: 24 h, first singlicate assay
row,SMILES,% Inhibition n=1 24h
1,O=C(NC1CCCCCC1)c1cc2cn(C3CC3)cc2s1 [SN00802023],3.6%
2,Cc1sc(C(=O)N2CCCC2)c2ncnc(NCc3cccc(Cl)c3)c12 [SN00803183],29.7%

# Same assay, conditions: 24 h, re-assessment
row,SMILES,% Inhibition n=2 24h
1,O=C(NC1CCCCCC1)c1cc2cn(C3CC3)cc2s1 [SN00802023],0.0%
2,Cc1sc(C(=O)N2CCCC2)c2ncnc(NCc3cccc(Cl)c3)c12 [SN00803183],1.5%

# Same assay, conditions: 48 h
row,SMILES,Average % Inhibition 48h
1,O=C(NC1CCCCCC1)c1cc2cn(C3CC3)cc2s1 [SN00802023],46.9%
2,Cc1sc(C(=O)N2CCCC2)c2ncnc(NCc3cccc(Cl)c3)c12 [SN00803183],27.6%

# Same assay, conditions: 48 h, first singlicate assay
row,SMILES,% Inhibition n=1 48h
1,CN1CCC(OC2CCN(C(=O)CC3CCCC3)CC2)CC1 [SN00801545],26.4%
2,CNC(=O)N1CCC(C2CCN(C(=O)c3ccncc3)CC2)C1 (stereo not drawn) [SN00801593],4.5%
3,CCc1ccc(NC(=O)Cn2nc3n(c2=O)CCCC3)cc1 [SN00801641],9.1%
4,O=C(Cn1nc2n(c1=O)CCCC2)NCc1ccccc1Br [SN00801654],6.0%
5,O=C(c1cnccn1)N1CCCC1c1nc(-c2ccccc2)no1 (stereo not drawn) [SN00801675],0.0%
6,COc1ccc(C2(C(=O)N3CCC(Cc4nc(-c5ccc(F)cc5)no4)CC3)CC2)cc1 [SN00801690],0.0%
7,CCc1ccc(C(=O)N2CCC(Cc3nc(-c4ccc(OC)cc4)no3)CC2)cc1 [SN00801692],0.0%
8,CC(C)(C)c1ccc(C(=O)N2CCC3(CC2)NC(c2ccccc2)=NO3)cc1 [SN00801741],0.0%
9,O=C1CC(c2noc(-c3ccc(F)cc3)n2)CN1c1ccc(F)cc1 (stereo not drawn) [SN00801778],9.0%
10,COc1ccc(N2CC(c3noc(-c4ccc(C(C)(C)C)cc4)n3)CC2=O)cc1 (stereo not drawn) [SN00801793],0.0%
11,O=C(Nc1ccc(N2CCN(C3CCCCC3)C2=O)nc1)c1ccc(Cl)s1 [SN00801852],26.3%
12,O=C(c1cn2ccnc(-c3ccccc3)c2n1)N1CCCCC1 [SN00801929],30.6%
13,Cc1scc2nc(C(N)=O)nc(N3CCCC3)c12 [SN00801956],22.6%
14,COCCn1c(C2CCN(S(=O)(=O)c3cccs3)C2)nc2cccnc21 (stereo not drawn) [SN00802004],5.3%
15,O=C(NC1CCCCCC1)c1cc2cn(C3CC3)cc2s1 [SN00802023],43.4%
16,CC(C)n1cc2cc(C(=O)NCCCN3CCCc4ccccc43)sc2c1 [SN00802034],3.6%
17,c1cnc(-c2nnc(C3CCCNC3)[nH]2)cn1 (stereo not drawn) [SN00802129],2.3%
18,CCC(=O)N1CC(C(=O)NCCN(C)C)C2(CCOCC2)C1 (stereo not drawn) [SN00802145],13.1%
19,Cc1nc(C)c2c(n1)N(CCN(C)C1CCCCC1)C(=O)CC2 [SN00802202],0.0%
20,Cc1nc(-c2ccncc2)nc2c1CCC(=O)N2CCC1=CCCCC1 [SN00802205],0.0%
21,CCNC(=O)c1c(C)oc2c1CNCC2 [SN00802246],10.3%
22,CCC1(N2CCN(C)CC2)CCN(S(=O)(=O)c2ccccc2)C1 (stereo not drawn) [SN00802274],2.6%
23,CCCCN1CCN(C(=O)c2cc3c(=O)n(CC(C)C)c4ccccc4n3n2)CC1 [SN00802291],12.0%
24,Cc1ccc(CNC(=O)N2CCCN(C3CCN(CC4CC4)C3=O)CC2)cc1 (stereo not drawn) [SN00802402],5.4%

row,SMILES,% Inhibition n=1 48h
1,COCCN1CCC(N2CCCN(C(=O)NCCc3ccccc3)CC2)C1=O (stereo not drawn) [SN00802413],1.7%
2,CCOc1ccccc1CNC(=O)c1nc(C(C)C)oc1C [SN00802425],24.0%
3,Cc1oc(C2CCC2)nc1C(=O)NC(C)c1ccccn1 (stereo not drawn) [SN00802442],17.0%
4,COc1ccc(-c2ccnc3c(C(=O)NCc4ccc5c(c4)OCO5)cnn23)cc1OC [SN00802455],16.8%
5,CCN(CC)CCCC(C)NC(=O)c1cc(-c2ccco2)on1 (stereo not drawn) [SN00802522],3.7%
6,COC(=O)C(C)n1cnc2c(nnn2Cc2ccc(C)cc2)c1=O (stereo not drawn) [SN00802538],3.2%
7,COc1cccc(-c2noc(C3CCCCN3C(=O)Nc3ccc(Cl)cc3Cl)n2)c1 (stereo not drawn) [SN00802548],5.7%
8,COC(=O)C(C)n1cnc2c(nnn2Cc2ccccc2F)c1=O (stereo not drawn) [SN00802558],11.4%
9,Cc1ccccc1C(=O)N[C@@H]1CCCC[C@H]1NC(=O)C1CCCN(C(=O)c2ccc(Cl)cc2)C1 (stereo partly drawn) [SN00802559],3.9%
10,O=C(Cn1cnc2c(nnn2Cc2ccc(Cl)cc2)c1=O)NC1CCCC1 [SN00802568],16.4%
11,CCCN(C)C(=O)Cn1c(=O)n(-c2ccc(F)cc2)c(=O)c2ccccc21 [SN00802614],32.9%
12,O=C(c1ccc(F)cc1)N1CCc2[nH]nc(C(=O)N3CCN(c4ccc(F)cc4)CC3)c2C1 [SN00802630],0.9%
13,CCn1nc(C(=O)NCc2ccccc2F)cc1-c1cc(C)sc1C [SN00802641],9.7%
14,Cc1ccccc1-n1nc(C(=O)N(C)Cc2ccco2)nc1CCc1ccccc1 [SN00802642],5.4%
15,CCOC(=O)CC(=O)Nc1ccc(-c2onc3c2CCc2cc(OC)ccc2-3)cc1 [SN00802675],5.3%
16,O=c1c2c(ncn2Cc2ccc(F)cc2)n(-c2ccccc2)c(=O)n1C1CCCC1 [SN00802718],6.1%
17,Cc1cccc2c1NC1(CCN(S(=O)(=O)c3ccc(C(C)(C)C)cc3)CC1)NC2=O [SN00802737],13.3%
18,COc1ccc(-n2nc3c(c2NC(=O)c2ccc([N+](=O)[O-])cc2)CS(=O)(=O)C3)cc1 [SN00802781],12.4%
19,CCn1nc(C(=O)NCCOc2ccccc2)cc1-c1cc(C)sc1C [SN00802783],0.0%
20,Cc1ccc(-n2nc3c(c2NC(=O)COc2ccccc2)CS(=O)(=O)C3)c(C)c1 [SN00802785],16.6%
21,CC(C)(C)c1cc2nc(-c3ccccc3)cc(C(=O)NC3CCCCNC3=O)n2n1 (stereo not drawn) [SN00802787],0.0%
22,CCN(CC)C(=O)c1cc(-c2cccs2)nc2cc(C)c(C)cc12 [SN00802800],16.9%
23,COc1ccc(C2NC(=O)NC(C)=C2C(=O)c2ccccc2)cc1 (stereo not drawn) [SN00802824],12.9%
24,CCOC(=O)c1csc(-n2nc(CC(C)C)cc2C(F)(F)F)n1 [SN00802831],29.0%

row,SMILES,% Inhibition n=1 48h
1,Cc1ccc(Cn2ccc3nc(N4CCCCC4)ncc3c2=O)cc1 [SN00802904],15.1%
2,CCn1cc(C(=O)Nc2ccccc2O)c(=O)c2cc(F)c(N3CCN(C(C)=O)CC3)cc21 [SN00802927],0.0%
3,CCOc1ccc(S(=O)(=O)N(C)Cc2c(C)nn(C)c2C)cc1 [SN00802962],2.3%
4,Cc1cc(C)cc(N2CCN(CCCNC(=O)c3nc(-c4ccncn4)no3)CC2)c1 [SN00802991],0.0%
5,Cc1sc2ncn(CCN(C)C)c(=O)c2c1C(=O)Nc1ccc(S(N)(=O)=O)nc1 [SN00803001],26.5%
6,COc1ccc(CNC(=O)N2CCC(c3ccn4ncc(C(=O)N5CCOCC5)c4c3)CC2)cc1 [SN00803088],0.7%
7,COc1ccc(CC(=O)NC2CCN(c3nc4c(s3)c(C)nn4-c3cccc(C)c3)CC2)cc1 [SN00803147],1.5%
8,Cc1nn(-c2ccc(F)cc2)c2nc(N3CCCN(C(=O)Cc4cccs4)CC3)sc12 [SN00803162],27.0%
9,Cc1ccc(-n2nc(C)c3sc(N4CCCN(C(=O)c5ccc6c(c5)OCO6)CC4)nc32)cc1 [SN00803168],0.0%
10,Cc1sc(C(=O)N2CCCC2)c2ncnc(NCc3cccc(Cl)c3)c12 [SN00803183],47.9%
11,Cc1sc(C(=O)N2CCCC2)c2ncnc(NCc3ccc(F)c(Cl)c3)c12 [SN00803192],23.9%
12,CCN1CCN(c2ccc3nnc(C(C)C)n3n2)CC1 [SN00803240],0.4%
13,COc1ccccc1CNC(=O)CCN1C(=O)c2ccccc2C1=O [SN00807762],30.7%
14,COc1ccc(N2C(=O)c3ccncc3C2=O)c(OC)c1 [SN00807767],28.6%
15,CN(C)C(=O)N1CCN(Cc2nc3c(cnn3C)c(=O)[nH]2)CC1 [SN00807792],0.0%
16,Cn1ncc2c(=O)[nH]c(CN3CCN(c4cnccn4)CC3)nc21 [SN00807797],0.0%
17,Cc1ccc(C(=O)N2CCCN(S(C)(=O)=O)CC2)c(=O)[nH]1 [SN00807837],19.8%
18,O=C(CSc1ccccc1)NCC1(N2CCCCC2)CCOCC1 [SN00807846],1.8%
19,Cc1nnc2n1CCN(C(=O)c1cnc(-c3ccccc3)s1)C2 [SN00807889],22.7%
20,Cc1ncc2c(n1)CN(C(C)c1nnc(-c3ccccc3)o1)CC2 (stereo not drawn) [SN00807918],13.7%
21,CCc1ncc2c(n1)CN(Cc1csc(-c3ncccn3)n1)CC2 [SN00807940],9.1%
22,Cc1ncc2c(n1)CN(C(C)c1nc(-c3cccs3)no1)CC2 (stereo not drawn) [SN00807951],13.5%
23,Cc1oc(-c2ccco2)nc1CN1CCc2cnc(C(C)C)nc2C1 [SN00807954],0.1%

# Same assay, conditions: 48 h, re-assessment
row,SMILES,% Inhibition n=2 48h
1,O=C(NC1CCCCCC1)c1cc2cn(C3CC3)cc2s1 [SN00802023],50.4%
2,Cc1sc(C(=O)N2CCCC2)c2ncnc(NCc3cccc(Cl)c3)c12 [SN00803183],7.3%
